Drawing on patent US20090232838A1, “Ligands of melanocortin receptors” (priority 2005, published 2009), this text covers Kb and EC50 for eleven molecules.

Holding throughout (type): cell-based
The target of one assay is T1, hMC4-R (Homo sapiens, UniProt P32245).
T1 construct: expressed in transfected cells; host or cells: CHO-K1
Description: cyclic AMP bioassay, hMC4-R.

A further assay addresses T2, hMC1-R (Homo sapiens, UniProt Q01726).
T2 construct: expressed in transfected cells; host or cells: CHO-K1
Description: cyclic AMP bioassay, hMC1-R.

The target of another assay is T3, hMC3-R (Homo sapiens, UniProt P41968).
T3 construct: expressed in transfected cells; host or cells: CHO-K1
Description: cyclic AMP bioassay, hMC3-R.

The next assay addresses T4, hMC5-R (Homo sapiens, UniProt P33032).
T4 construct: expressed in transfected cells; host or cells: CHO-K1
Description: cyclic AMP bioassay, hMC5-R.

[1] abbreviates: Table 3A, cAMP in CHO-K1 cells, antagonist potency by Schild analysis, read-out: Kb hMC4-R.
The mark [2] stands for this setting: Table 3A, cAMP in CHO-K1 cells, agonist, read-out: EC50 hMC1-R.
Setting [3] is: Table 3A, cAMP in CHO-K1 cells, antagonist potency by Schild analysis, read-out: Kb hMC3-R.
Where [4] appears, read: Table 3A, cAMP in CHO-K1 cells, agonist, read-out: EC50 hMC5-R.

Where two headings read alike, the source gives them in different places. Where a SMILES comes first, the peptide text is derived from it. Bridges are numbered along the chain shown (N, C = ends). [ ]: non-standard residue; d: D form. 1Nal = N[C@@H](Cc1cccc2ccccc12)C(=O)O; 2Nal = N[C@@H](Cc1ccc2ccccc2c1)C(=O)O; d2Nal = N[C@H](Cc1ccc2ccccc2c1)C(=O)O; Bta = N[C@@H](Cc1csc2ccccc12)C(=O)O

T4 sequence (P33032 whole entry): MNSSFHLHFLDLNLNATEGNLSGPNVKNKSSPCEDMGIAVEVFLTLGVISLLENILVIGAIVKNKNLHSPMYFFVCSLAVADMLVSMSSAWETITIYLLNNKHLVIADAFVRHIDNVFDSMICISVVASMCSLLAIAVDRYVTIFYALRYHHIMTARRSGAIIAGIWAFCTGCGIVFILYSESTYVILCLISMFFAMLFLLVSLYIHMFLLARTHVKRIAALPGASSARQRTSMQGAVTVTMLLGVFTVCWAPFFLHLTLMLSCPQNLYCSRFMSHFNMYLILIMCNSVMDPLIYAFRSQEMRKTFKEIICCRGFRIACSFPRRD
T2 sequence (Q01726 whole entry): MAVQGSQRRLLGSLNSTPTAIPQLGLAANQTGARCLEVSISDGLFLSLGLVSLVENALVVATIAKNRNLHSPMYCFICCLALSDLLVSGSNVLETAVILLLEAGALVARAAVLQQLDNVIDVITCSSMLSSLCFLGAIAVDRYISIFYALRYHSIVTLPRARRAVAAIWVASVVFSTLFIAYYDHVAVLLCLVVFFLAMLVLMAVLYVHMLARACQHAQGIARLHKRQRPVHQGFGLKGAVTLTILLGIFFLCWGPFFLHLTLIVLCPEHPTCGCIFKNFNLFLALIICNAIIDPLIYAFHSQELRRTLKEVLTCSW
T1 sequence (P32245 whole entry): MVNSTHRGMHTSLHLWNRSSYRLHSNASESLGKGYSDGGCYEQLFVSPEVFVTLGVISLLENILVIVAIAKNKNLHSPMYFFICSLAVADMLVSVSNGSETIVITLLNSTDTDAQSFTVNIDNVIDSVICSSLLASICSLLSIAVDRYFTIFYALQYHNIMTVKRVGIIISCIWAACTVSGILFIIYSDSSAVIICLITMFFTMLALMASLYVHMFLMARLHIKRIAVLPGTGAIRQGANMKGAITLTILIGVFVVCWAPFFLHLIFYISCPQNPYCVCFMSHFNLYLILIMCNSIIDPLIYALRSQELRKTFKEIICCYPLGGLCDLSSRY
T3 sequence (P41968 whole entry): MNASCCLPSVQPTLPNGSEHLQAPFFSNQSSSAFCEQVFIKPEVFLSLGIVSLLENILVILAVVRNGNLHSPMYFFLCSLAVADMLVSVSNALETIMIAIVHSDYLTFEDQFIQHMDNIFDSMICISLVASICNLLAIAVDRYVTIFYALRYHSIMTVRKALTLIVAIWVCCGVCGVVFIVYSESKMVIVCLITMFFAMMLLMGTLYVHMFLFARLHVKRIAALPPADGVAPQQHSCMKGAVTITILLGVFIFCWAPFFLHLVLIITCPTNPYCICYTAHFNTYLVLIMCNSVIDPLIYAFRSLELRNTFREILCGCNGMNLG
Description for hMC1-R: (§1) Intracellular cyclic AMP (cAMP) levels were determined by an electrochemiluminescence (ECL) assay (Meso Scale Discovery®, Gaithersburg, Md.; referred to hereinafter as MSD). […] Transgenic CHO-K1 cells stably expressing hMC receptor subtypes 1, 3, 4 or 5 were dispensed at a density of approximately 7,000 cells/well in 384-well Multi-Arrays plates (MSD) containing integrated carbon electrodes and coated with anti-CAMP antibody. Increasing concentrations of the test compounds were added and the cells were incubated for approximately 40 minutes at approximately 37° C. […] At the end of the second incubation period read buffer (Tris-buffered solution containing an ECL co-reactant and Triton X-100 at ph 7.8) was added and the cAMP levels in the cell lysates were immediately determined by ECL detection with a Sector Imager 6000 Reader® (MSD). Data were analyzed using a computer-assisted non-linear regression analysis (XL fit; IDBS) and reported as either an EC50 value or a Kb value.
(§2) The Kb value reflects the potency of an antagonist and is determined by Schild analysis. In brief, concentration-response curves of an agonist are carried out in the presence of increasing concentrations of an antagonist. […] It is calculated by extrapolating the line on a Schild plot to zero on the y-axis.
Description for hMC3-R: as §1, §2
Description for hMC5-R: as §1, §2

Consider `CCCC[C@H](NC(C)=O)C(=O)N[C@H]1CC(=O)NCCCC[C@@H](C(=O)NCCOCCOCC(=O)NCCOCCOCC(=O)N[C@@H](Cc2ccc(O)cc2)C(=O)NCC(=O)N[C@@H](CCCNC(=N)N)C(=O)N[C@@H](CCCCN)C(=O)N[C@@H](CCCCN)C(=O)N[C@@H](CCCNC(=N)N)C(=O)N[C@@H](CCCNC(=N)N)C(=O)N[C@@H](CCC(N)=O)C(=O)N[C@@H](CCCNC(=N)N)C(=O)N[C@@H](CCCNC(=N)N)C(=O)N[C@@H](CCCNC(=N)N)C(N)=O)NC(=O)[C@H](Cc2c[nH]c3ccccc23)NC(=O)[C@H](CCCNC(=N)N)NC(=O)[C@@H](Cc2ccc3ccccc3c2)NC(=O)[C@H](Cc2c[nH]cn2)NC1=O`, for which the Kb at hMC4-R (setting [1]) was found to be 4.61 nM; at hMC3-R (setting [3]), 8.97 nM. For the same molecule, the EC50 on hMC1-R (setting [2]) was found to be 3.23 nM; on hMC5-R (setting [4]), 2.86 nM.

Turning to `CCCC[C@H](NC(C)=O)C(=O)N[C@H]1CC(=O)NCCCC[C@@H](C(=O)N2CCC[C@H]2C(=O)N2CCC[C@H]2C(=O)N[C@@H](CCCCN)C(=O)N[C@@H](CC(=O)O)C(=O)NCCOCCOCC(=O)N[C@@H](Cc2ccc(O)cc2)C(=O)NCC(=O)N[C@@H](CCCNC(=N)N)C(=O)N[C@@H](CCCCN)C(=O)N[C@@H](CCCCN)C(=O)N[C@@H](CCCNC(=N)N)C(=O)N[C@@H](CCCNC(=N)N)C(=O)N[C@@H](CCC(N)=O)C(=O)N[C@@H](CCCNC(=N)N)C(=O)N[C@@H](CCCNC(=N)N)C(=O)N[C@@H](CCCNC(=N)N)C(N)=O)NC(=O)[C@H](Cc2c[nH]c3ccccc23)NC(=O)[C@H](CCCNC(=N)N)NC(=O)[C@@H](Cc2ccc3ccccc3c2)NC(=O)[C@H](Cc2c[nH]cn2)NC1=O`, the results for the Kb on hMC4-R (setting [1]) and on hMC3-R (setting [3]) were 3.73 nM and 19.4 nM, respectively. The EC50 on hMC1-R (setting [2]) came out at 3.65 nM; on hMC5-R (setting [4]) it was 1.61 nM.

Consider `CCCC[C@H](NC(C)=O)C(=O)N[C@H]1CC(=O)NCCCC[C@@H](C(=O)NCCC(=O)NCCC(=O)N[C@@H](Cc2ccc(O)cc2)C(=O)NCC(=O)N[C@@H](CCCNC(=N)N)C(=O)N[C@@H](CCCCN)C(=O)N[C@@H](CCCCN)C(=O)N[C@@H](CCCNC(=N)N)C(=O)N[C@@H](CCCNC(=N)N)C(=O)N[C@@H](CCC(N)=O)C(=O)N[C@@H](CCCNC(=N)N)C(=O)N[C@@H](CCCNC(=N)N)C(=O)N[C@@H](CCCNC(=N)N)C(N)=O)NC(=O)[C@H](Cc2c[nH]c3ccccc23)NC(=O)[C@H](CCCNC(=N)N)NC(=O)[C@@H](Cc2ccc3ccccc3c2)NC(=O)[C@H](Cc2c[nH]cn2)NC1=O`, for which the values for the Kb on hMC4-R (setting [1]) and at hMC3-R (setting [3]) were 7.94 nM and 16.2 nM, respectively. Also, the EC50 at hMC1-R (setting [2]) was 1.39 nM; on hMC5-R (setting [4]) it was 0.839 nM.

As to `CC(=O)N[C@H]1CSSC[C@@H](C(=O)N2CCC[C@H]2C(=O)N2CCC[C@H]2C(=O)N[C@@H](CCCCN)C(=O)N[C@@H](CC(=O)O)C(=O)NCCC(=O)N[C@@H](Cc2ccc(O)cc2)C(=O)NCC(=O)N[C@@H](CCCNC(=N)N)C(=O)N[C@@H](CCCCN)C(=O)N[C@@H](CCCCN)C(=O)N[C@@H](CCCNC(=N)N)C(=O)N[C@@H](CCCNC(=N)N)C(=O)N[C@@H](CCC(N)=O)C(=O)N[C@@H](CCCNC(=N)N)C(=O)N[C@@H](CCCNC(=N)N)C(=O)N[C@@H](CCCNC(=N)N)C(N)=O)NC(=O)[C@H](C)NC(=O)[C@H](Cc2c[nH]c3ccccc23)NC(=O)[C@H](CCCNC(=N)N)NC(=O)[C@@H](Cc2ccc3ccccc3c2)NC(=O)[C@H](Cc2c[nH]cn2)NC(=O)[C@H](CCC(=O)O)NC1=O`, the Kb is 1.66 nM at hMC4-R (setting [1]) and 70 nM at hMC3-R (setting [3]). Further, the concentration for a half-maximal effect (EC50) came out at 6.3 nM on hMC1-R (setting [2]) and 38.2 nM at hMC5-R (setting [4]).

`CC(=O)N[C@H]1CSSC[C@@H](C(=O)N2CCC[C@H]2C(=O)N2CCC[C@H]2C(=O)N[C@@H](CCCCN)C(=O)N[C@@H](CC(=O)O)C(=O)NCCC(=O)N[C@@H](Cc2ccc(O)cc2)C(=O)NCC(=O)N[C@@H](CCCNC(=N)N)C(=O)N[C@@H](CCC(N)=O)C(=O)N[C@@H](CCCCN)C(=O)N[C@@H](CCCCN)C(=O)N[C@@H](CCCNC(=N)N)C(=O)N[C@@H](CCCNC(=N)N)C(=O)N[C@@H](CCCNC(=N)N)C(=O)N[C@@H](CCCNC(=N)N)C(=O)N[C@@H](CCCNC(=N)N)C(N)=O)NC(=O)[C@H](C)NC(=O)[C@H](Cc2c[nH]c3ccccc23)NC(=O)[C@H](CCCNC(=N)N)NC(=O)[C@@H](Cc2ccc3ccccc3c2)NC(=O)[C@H](Cc2c[nH]cn2)NC(=O)[C@H](CCC(=O)O)NC1=O`: the Kb on hMC4-R (setting [1]) was found to be 9.38 nM; at hMC3-R (setting [3]), 13.7 nM. Moreover, the EC50 on hMC1-R (setting [2]) came out at 12 nM; on hMC5-R (setting [4]), 54.2 nM.

With `CC(=O)N[C@H]1CSSC[C@@H](C(=O)N2CCC[C@H]2C(=O)N2CCC[C@H]2C(=O)N[C@@H](CCCCN)C(=O)N[C@@H](CC(=O)O)C(=O)NCCOCCOCC(=O)N[C@@H](Cc2ccc(O)cc2)C(=O)NCC(=O)N[C@@H](CCCNC(=N)N)C(=O)N[C@@H](CCCCN)C(=O)N[C@@H](CCCCN)C(=O)N[C@@H](CCCNC(=N)N)C(=O)N[C@@H](CCCNC(=N)N)C(=O)N[C@@H](CCC(N)=O)C(=O)N[C@@H](CCCNC(=N)N)C(=O)N[C@@H](CCCNC(=N)N)C(=O)N[C@@H](CCCNC(=N)N)C(N)=O)NC(=O)[C@H](C)NC(=O)[C@H](Cc2c[nH]c3ccccc23)NC(=O)[C@H](CCCNC(=N)N)NC(=O)[C@@H](Cc2ccc3ccccc3c2)NC(=O)[C@H](Cc2c[nH]cn2)NC(=O)[C@H](CCC(=O)O)NC1=O`, the Kb at hMC4-R (setting [1]) came to 1.81 nM; at hMC3-R (setting [3]), 30.3 nM. The values for the EC50 at hMC1-R (setting [2]) and at hMC5-R (setting [4]) were 12.1 nM and 70 nM, respectively.

In the case of `CC(=O)N[C@H]1CSSC[C@@H](C(=O)N2CCC[C@H]2C(=O)N2CCC[C@H]2C(=O)N[C@@H](CCCCN)C(=O)N[C@@H](CC(=O)O)C(=O)NCCC(=O)N[C@@H](Cc2ccc(O)cc2)C(=O)NCC(=O)N[C@@H](CCCNC(=N)N)C(=O)N[C@@H](CCCCN)C(=O)N[C@@H](CCCCN)C(=O)N[C@@H](CCCNC(=N)N)C(=O)N[C@@H](CCCNC(=N)N)C(=O)N[C@@H](CCCNC(=N)N)C(=O)N[C@@H](CCC(N)=O)C(=O)N[C@@H](CCCNC(=N)N)C(=O)N[C@@H](CCCNC(=N)N)C(N)=O)NC(=O)[C@H](C)NC(=O)[C@H](Cc2c[nH]c3ccccc23)NC(=O)[C@H](CCCNC(=N)N)NC(=O)[C@@H](Cc2ccc3ccccc3c2)NC(=O)[C@H](Cc2c[nH]cn2)NC(=O)[C@H](CCC(=O)O)NC1=O`, the results for the Kb at hMC4-R (setting [1]) and at hMC3-R (setting [3]) were 7.31 nM and 20.8 nM, respectively. Also, the concentration for a half-maximal effect (EC50) at hMC1-R (setting [2]) turned out to be 16.4 nM; on hMC5-R (setting [4]), 44.2 nM.

With `CC(=O)N[C@H]1CSSC[C@@H](C(=O)N2CCC[C@H]2C(=O)N2CCC[C@H]2C(=O)N[C@@H](CCCCN)C(=O)N[C@@H](CC(=O)O)C(N)=O)NC(=O)[C@H](C)NC(=O)[C@H](Cc2cccc3ccccc23)NC(=O)[C@H](CCCNC(=N)N)NC(=O)[C@@H](Cc2ccc3ccccc3c2)NC(=O)[C@H](Cc2c[nH]cn2)NC(=O)[C@H](CCC(=O)O)NC1=O` [Ac-c(Cys-Glu-His-D-2-Nal-Arg-1-Nal-Ala-Cys)-Pro-Pro-Lys-Asp-NH2] (Ac-CEH[d2Nal]R[1Nal]ACPPKD-NH2; disulfide 1-8), the Kb came out at 5.92 nM on hMC4-R and 105 nM at hMC3-R. Further, the EC50 on hMC1-R was found to be 269 nM; at hMC5-R it was 104 nM.

`CC(=O)N[C@H]1CSSC[C@@H](C(=O)N2CCC[C@H]2C(=O)N2CCC[C@H]2C(=O)N[C@@H](CCCCN)C(=O)N[C@@H](CC(=O)O)C(N)=O)NC(=O)[C@H](C)NC(=O)[C@H](Cc2ccc3ccccc3c2)NC(=O)[C@H](CCCNC(=N)N)NC(=O)[C@@H](Cc2ccc3ccccc3c2)NC(=O)[C@H](Cc2c[nH]cn2)NC(=O)[C@H](CCC(=O)O)NC1=O` [Ac-c(Cys-Glu-His-D-2-Nal-Arg-2-Nal-Ala-Cys)-Pro-Pro-Lys-Asp-NH2] (Ac-CEH[d2Nal]R[2Nal]ACPPKD-NH2; disulfide 1-8): the Kb at hMC4-R was determined as 12.2 nM; on hMC3-R it was 140 nM. For the same molecule, the 50% effective concentration (EC50) at hMC1-R is 33.6 nM; at hMC5-R it was 66.9 nM.

For the molecule `CC(=O)N[C@H]1CSSC[C@@H](C(=O)N2CCC[C@H]2C(=O)N2CCC[C@H]2C(=O)N[C@@H](CCCCN)C(=O)N[C@@H](CC(=O)O)C(N)=O)NC(=O)[C@H](C)NC(=O)[C@H](Cc2csc3ccccc23)NC(=O)[C@H](CCCNC(=N)N)NC(=O)[C@@H](Cc2ccc3ccccc3c2)NC(=O)[C@H](Cc2c[nH]cn2)NC(=O)[C@H](CCC(=O)O)NC1=O` [Ac-c(Cys-Glu-His-D-2-Nal-Arg-Bal-Ala-Cys)-Pro-Pro-Lys-Asp-NH2] (Ac-CEH[d2Nal]R[Bta]ACPPKD-NH2; disulfide 1-8), the Kb amounted to 4.56 nM on hMC4-R and 70.7 nM at hMC3-R. The half-maximal effective concentration (EC50) at hMC1-R was determined as 690 nM; at hMC5-R it was 177 nM.

`CC(=O)N[C@H]1CSSC[C@@H](C(=O)N2CCC[C@H]2C(=O)N2CCC[C@H]2C(=O)N[C@@H](CCCCN)C(=O)N[C@@H](CC(=O)O)C(N)=O)NC(=O)[C@H](C)NC(=O)[C@H](Cc2c[nH]c3ccccc23)NC(=O)[C@H](CCCNC(=N)N)NC(=O)[C@@H](Cc2ccc3ccccc3c2)NC(=O)[C@H](Cc2c[nH]cn2)NC(=O)[C@H](CCC(=O)O)NC1=O` [Ac-c(Cys-Glu-His-D-2-Nal-Arg-Trp-Ala-Cys)-Pro-Pro-Lys-Asp-NH2] (Ac-CEH[d2Nal]RWACPPKD-NH2; disulfide 1-8): the values for the Kb on hMC4-R (setting [1]) and on hMC3-R (setting [3]) were 0.687 nM and 33.4 nM, respectively. Moreover, the EC50 at hMC1-R (setting [2]) was 66.1 nM; at hMC5-R (setting [4]), 6.84 nM.
